Measured values published in patent US9593148B2, “DPP8 and DPP9 peptide inhibitors” (GEORG-AUGUST-UNIVERSITAT GOTTINGEN STIFTUNG OFFENTLICHEN …, priority 2012, dated 2017).
Like-named read-outs stand apart in the source and are kept apart here. No end group written: not given here.

How the values were obtained:
DPP9 [1] = molecular target: T1, DPP9 (Homo sapiens, UniProt Q86TI2); experiment: Inhibition of GP-AMC hydrolysis by purified recombinant DPP9 at a single peptide concentration; assay type: biochemical; details: 25 nM DPP9, 0.2 mM GP-AMC
T1 construct: made in house; host or cells: Sf9 insect cells (baculovirus)
T1 sequence (Q86TI2 1-892 isoform Q86TI2-2): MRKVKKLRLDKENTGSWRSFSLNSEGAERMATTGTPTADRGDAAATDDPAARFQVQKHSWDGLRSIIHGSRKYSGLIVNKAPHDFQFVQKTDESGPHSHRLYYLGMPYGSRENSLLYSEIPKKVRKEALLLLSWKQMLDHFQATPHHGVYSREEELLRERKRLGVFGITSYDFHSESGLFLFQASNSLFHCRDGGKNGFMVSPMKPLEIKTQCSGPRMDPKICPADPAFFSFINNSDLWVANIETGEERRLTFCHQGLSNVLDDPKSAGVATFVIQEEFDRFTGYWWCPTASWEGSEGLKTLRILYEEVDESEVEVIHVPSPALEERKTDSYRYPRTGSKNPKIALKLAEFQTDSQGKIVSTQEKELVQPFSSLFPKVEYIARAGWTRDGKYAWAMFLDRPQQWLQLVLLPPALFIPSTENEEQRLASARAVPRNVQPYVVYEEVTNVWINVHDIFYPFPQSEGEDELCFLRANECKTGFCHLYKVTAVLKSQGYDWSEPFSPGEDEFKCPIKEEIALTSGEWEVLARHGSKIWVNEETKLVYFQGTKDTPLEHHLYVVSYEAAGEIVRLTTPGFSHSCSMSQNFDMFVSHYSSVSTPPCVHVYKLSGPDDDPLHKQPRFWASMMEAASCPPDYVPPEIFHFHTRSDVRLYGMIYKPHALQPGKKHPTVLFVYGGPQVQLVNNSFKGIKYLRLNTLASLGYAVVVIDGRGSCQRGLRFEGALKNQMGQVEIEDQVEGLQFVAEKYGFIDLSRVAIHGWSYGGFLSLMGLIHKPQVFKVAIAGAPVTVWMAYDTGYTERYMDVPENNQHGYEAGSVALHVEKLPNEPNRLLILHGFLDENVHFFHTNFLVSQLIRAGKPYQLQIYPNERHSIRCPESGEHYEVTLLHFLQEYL
Experimental: Accordingly, the peptide is capable of inhibiting the activity of wild-type DPP9 (SEQ ID NO: 6) to a level of 35 to 5% of the activity of wild-type DPP9 (SEQ ID NO: 6) if not inhibited, as determined in an assay using 25 nM purified DPP9, 0.2 mM GP-AMC, and 14 μM of the peptide to be tested, in TB buffer (20 mM Hepes/KOH pH 7.3, 110 mM potassium acetate, 2 mM Mg acetate, 0.5 mM EGTA), supplemented with 0.2% Tween-20, 1 mM dithiothreitol. Release of AMC from GP-AMC is measured using the Appliskan microplate fluorimeter (Thermo Scientific) with 380 nm (excitation) and 480 nm (emission) filters and the Skanit software, and analysed using the Prism software.
(§1) Kinetics assays: Purified recombinant DPP9 (25 nM) was incubated with varying concentrations of GP-AMC, in TB supplemented with 0.2% Tween-20, 1 mM ditiothreitol. For inhibition assays, inhibitory peptides were added directly to the reaction mixture. For activation by SUMO 0.2 mg/ml BSA, was added to the buffer to prevent non specific binding. DPP9 were incubated with 2.5 μM of either SUMO1, SUMO1 E67A, SUMO2 for 2 hour on ice prior to the assay. Alternatively DPP9 was incubated with 1 μM of RanGAP or RanGAP modified with either SUMO1 or SUMO2 for 2 hours prior to the assay. Fluorescence was measured using the Appliskan microplate fluorimeter (Thermo Scientific) with 380 nm (excitation) and 480 nm (emission) filters and the Skanit software, and analysed using the Prism software. Each experiment was performed at least three times, in replicates of four.
To improve the inhibition of DPP9, the inventors tested several peptide libraries composed of truncated variants of the EIL peptide (>80% pure, ordered from Genescript). These peptides were incubated with recombinant DPP9 and analysed GP-AMC hydrolysis. AMC release was then compared to samples containing either DPP9 alone, or the EIL peptide.

DPP9 [2] = molecular target: T1, DPP9; experiment: Kinetics assay, Ki for inhibition of DPP9 (GP-AMC hydrolysis); assay type: biochemical
Experimental: (§2) Enzyme kinetics and the Ki of DPP8 or DPP9 may be determined as follows: 25 nM purified recombinant enzyme (DPP9 or DPP8) are incubated with varying concentrations of GP-AMC ([…] GP-AMC), in TB buffer (20 mM Hepes/KOH pH 7.3, 110 mM potassium acetate, 2 mM Mg acetate, 0.5 mM EGTA), supplemented with 0.2% Tween-20, 1 mM dithiothreitol. Experiments are performed in triplicates. To measure Ki values, for each set of experiments, inhibitory peptides are added to DPP9 or DPP8. Peptide concentrations tested are in the range between 0.04 to 50 μM. Release of AMC from GP-AMC is measured using the Appliskan microplate fluorimeter (Thermo Scientific) with 380 nm (excitation) and 480 nm (emission) filters and the Skanit software, and analysed using the Prism software.
(§3) A&B 25 nM purified recombinant (A) DPP9 or (B) DPP8 were incubated with varying concentrations of the EIL peptide (0, 3.3 μM and 6.6 μM) and tested for hydrolysis of GP-AMC (1000, 500, 250, 125, 0 μM). C. 25 nM DPPIV was tested for the hydrolysis of GP-AMC (500, 250, 125, 0 μM) in the presence of 0 or 13 μM EIL peptide. Fluorescence was measured using the Appliskan microplate fluorimeter (Thermo Scientific) with 380 nm (excitation) and 480 nm (emission) filters and the Skanit software, and analysed using the Prism software. Each experiment was performed at least three times, in replicates of four.
as §1

[3] = test system: cytosolic prolyl peptidase activity (HeLa cytosolic fractions); experiment: GP-AMC hydrolysis in HeLa cytosolic fractions incubated with peptide; assay type: biochemical, human; details: HeLa cytosolic extracts
Experimental: HeLa cytosolic fractions were incubated with 0, 27.7 or 55.6 μM peptide EIL, and immediately tested for hydrolysis of varying concentrations of A. GP-AMC or B. R-AMC. Fluorescence was measured using the Appliskan microplate fluorimeter (Thermo Scientific) with 380 nm (excitation) and 480 nm (emission) filters and the Skanit software, and analysed using the Prism software. Each experiment was performed at least three times, in replicates of four.
Since the EIL peptide can displace SUMO1 from a DPP9-SUMO1 or a DPP8-SUMO1 complex (FIG. 2D), the inventors tested whether the EIL peptide would inhibit the association-dependent activation of DPP8 and DPP9 by SUMO1 in cell extracts. For this the inventors incubated cytosolic extracts with the EIL peptide and tested for the hydrolysis of GP-AMC (FIG. 8A). […] For control, the inventors also measured the hydrolysis of R-AMC, which is not a substrate for DPP8 or DPP9 (FIG. 8B).

DPP8 = molecular target: T2, DPP8 (Homo sapiens, UniProt Q6V1X1); experiment: Kinetics assay, Ki for inhibition of DPP8 (GP-AMC hydrolysis); assay type: biochemical
T2 construct: made in house; host or cells: Sf9 insect cells (baculovirus)
T2 sequence (Q6V1X1 whole entry): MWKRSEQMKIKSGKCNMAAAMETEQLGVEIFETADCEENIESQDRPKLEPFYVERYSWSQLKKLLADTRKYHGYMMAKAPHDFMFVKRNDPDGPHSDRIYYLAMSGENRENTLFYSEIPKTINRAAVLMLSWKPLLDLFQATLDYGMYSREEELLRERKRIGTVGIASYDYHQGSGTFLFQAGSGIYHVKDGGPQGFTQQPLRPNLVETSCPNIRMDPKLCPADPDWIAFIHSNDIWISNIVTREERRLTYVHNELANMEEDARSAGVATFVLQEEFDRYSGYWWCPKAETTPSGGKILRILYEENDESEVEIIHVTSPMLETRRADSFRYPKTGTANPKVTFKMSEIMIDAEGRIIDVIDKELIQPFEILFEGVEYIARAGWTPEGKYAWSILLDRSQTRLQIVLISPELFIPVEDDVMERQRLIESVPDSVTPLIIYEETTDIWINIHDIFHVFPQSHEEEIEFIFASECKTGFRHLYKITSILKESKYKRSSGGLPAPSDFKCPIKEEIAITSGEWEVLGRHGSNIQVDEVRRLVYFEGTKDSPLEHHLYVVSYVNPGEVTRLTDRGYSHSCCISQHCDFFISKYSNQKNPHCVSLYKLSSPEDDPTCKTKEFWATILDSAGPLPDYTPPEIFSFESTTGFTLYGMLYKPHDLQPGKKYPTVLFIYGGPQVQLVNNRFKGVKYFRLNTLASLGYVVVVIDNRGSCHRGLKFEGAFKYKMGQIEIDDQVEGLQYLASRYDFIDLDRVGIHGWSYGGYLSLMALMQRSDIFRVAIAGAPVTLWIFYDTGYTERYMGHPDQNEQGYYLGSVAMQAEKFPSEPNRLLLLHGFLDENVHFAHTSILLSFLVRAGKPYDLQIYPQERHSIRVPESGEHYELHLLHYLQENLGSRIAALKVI
Experimental: as §2, §3

[4] = 10 μM peptide, DPP9 alone = 100.3
[5] = 14 μM peptide, no peptide = 100
[6] = 25 nM DPP9, 0, 5 or 20 μM peptide, GP-AMC 0-500 μM, read-out: Ki (μM) for inhibition of DPP9

## AAASLRFLYEG (SLRFLYEGAAA; EIL variant peptide)
DPP9 [1]; [4]
  % DPP9 activity (Mean): 91.15%

## Acet-SLRFLFEG
DPP9 [1]; [4]
  % DPP9 activity (Mean): 90.74%

## FEGQRIADNH (SLRFLFEGQRIAD; EIL peptide variant)
DPP9 [1]; [5]
  % DPP9 activity (Mean): 97.12%

## FLFEGQRI (EIL peptide variant)
DPP9 [1]; [5]
  % DPP9 activity (Mean): 48.41%

## H-SLRFLFAGQRIADNH
DPP9 [2]; [6]
  Ki: 1.43 µM
DPP9 [1]; [5]
  % DPP9 activity (Mean): 5.093%

## H-SLRFLFEG
DPP9 [2]; [6]
  Ki: 2 µM
DPP9 [1]; [4]
  % DPP9 activity (Mean): 24.08%

## H-SLRFLYEGQRIADNH
DPP9 [2]; [6]
  Ki: 2.56 µM
DPP9 [1]; [5]
  % DPP9 activity (Mean): 13.06%

## LFEGQR (FLIEGQRI; EIL peptide variant)
DPP9 [1]; [5]
  % DPP9 activity (Mean): 51%

## LFEGQRIADNH (EIL peptide variant)
DPP9 [1]; [5]
  % DPP9 activity (Mean): 67.77%

## RRRRSLRFLFEG (RRRRSLRFLYAG; EIL variant peptide)
DPP9 [1]; [4]
  % DPP9 activity (Mean): 92.2%

## SLRFLFEAQRIADNH (LRFLFEGQRIADNH; EIL peptide variant)
DPP9 [1]; [5]
  % DPP9 activity (Mean): 19.46%

## SLRFLFEGQ (LRFLFEGQRIADN; EIL peptide variant)
DPP9 [1]; [5]
  % DPP9 activity (Mean): 16.43%

## SLRFLFEGQR (EIL peptide variant)
DPP9 [1]; [5]
  % DPP9 activity (Mean): 24.27%

## SLRFLFEGQRIADNH
DPP9 [2]; [6]
  Ki: 7.32 µM
DPP9 [2]; read-out: Ki for DPP9
  Ki: 7.4 µM
[3]
  stability of the peptide in cytosolic extracts: stable in cytosolic extracts
DPP8
  Ki: 8.4 µM

## TLRFLFEG (SLRFLFEG; EIL variant peptide)
DPP9 [1]; [4]
  % DPP9 activity (Mean): 29.2%
